{
  "source": "patent US11471425B2",
  "about": "“Pharmaceutical composition containing broussochalcone a as active ingredient for treatment of inflammatory bowel disease” (BIOPHARMARESEARCHLAB CO., LTD., priority 2017, dated 2022)",
  "key": {"[1]": {"details": "mouse, in vivo, po", "description": "(§2) In addition, changes in body weight and food intake were observed by measuring the body weight and food intake at daily intervals from the start (day 0) to the end (day 11) of the animal experiment.\n(§3) 7-Week-old C57BL/6J mice were purchased from Central Lab. Animal Inc. (Seoul, Korea) and acclimatized for 7 days to an experimental environment, which was maintained at constant humidity and constant temperature under a 12-hour light/dark cycle, while allowing them to access solid feed and water ad libitum. After 7 days of acclimatization period, the mice were divided into normal group, control group, positive control group (sulfasalazine), and BA experimental group (broussochalcone A) (Table 1).\n(§4) Sulfasalazine (Sigma, USA) was quantified at 150 mg and dissolved in 1 ml of DMSO to prepare an SUL solution. 9 ml of Koliphor EL was diluted in PBS to prepare a 10% (v/v) Koliphor solution. The SUL solution was mixed with 9 ml of 10% (v/v) Koliphor solution to prepare an SUL specimen. Then, the SUL specimen was quantified and orally administered at 100 μl/10 g·body weight (bw) to the positive control group. […]\n(§5) Broussochalcone A (Natural Products Bank, Korea) was quantified at 20 mg and dissolved in 1 ml of DMSO to prepare a BA solution. […] Then, the BA specimen was quantified and orally administered at 100 μl/10 g·body weight (bw) to the BA experimental group. […]"}, "[2]": {"system": "colon tissues of ulcerative colitis-induced mice", "experiment": "Histological analysis (H&E staining) of colon tissues of ulcerative colitis-induced mice", "type": "in vivo, C57BL/6J mice", "details": "4 μm paraffin sections, colon extracted on day 11", "method": "(§1) On day 11, the mice were sacrificed by intraperitoneal injection of Alfaxan (Jurox Pty Limited, Australia), and then the colon, which ranges from the cecum site to the site immediately before the anus, was extracted. After all colonic contents in the colon tissues were removed, some specimens were fixed in 4% (v/v) paraformaldehyde fixative for use as pathological specimens, and the other specimens were stored frozen at −80° C. for molecular biological analysis.\nThe colon tissues stored frozen in Example 3 were fixed in 4% paraformaldehyde for 48 hours and then washed with PBS. The fixed tissues were embedded in paraffin, cut into 4 μm thickness, and stained with hematoxylin and eosin. Then, the stained tissues were observed under a microscope."}, "myeloperoxidase (MPO)": {"system": "myeloperoxidase (MPO)", "experiment": "Myeloperoxidase (MPO) activity in colon tissues of ulcerative colitis-induced mice", "type": "in vivo, C57BL/6J mice", "details": "colon tissue, day 11; absorbance at 412 nm, average of three measurements", "method": "as §1\nFor the mice for which ulcerative colitis had been induced by DSS, activity of MPO, an inflammatory indicator, was checked.\nThe colon tissues stored frozen in Example 3 were analyzed using the […] Colorimetric Activity Assay Kit (Sigma, USA), in which absorbance at a wavelength of 412 nm was measured three times to calculate an average value."}, "[3]": {"system": "ulcerative colitis-induced mice", "experiment": "Disease activity index (DAI) in DSS-induced ulcerative colitis mice", "type": "in vivo, C57BL/6J mice", "details": "3% (w/v) DSS in drinking water from day 3; specimen orally at 100 μl/10 g bw; compared with control group", "method": "The normal group received a mixture of 9 ml of Koliphor EL (Sigma, USA) and 1 ml of DMSO at the same dose as the BA experimental group. The normal group was allowed to access water ad libitum during the experimental period.\nThe control group received a mixture of 9 ml of Koliphor EL (Sigma, USA) and 1 ml of DMSO at the same dose as the BA experimental group.\nDuring the experimental period, the mice were caused to defecate once a day. Feces appearance was observed and fecal occult blood was observed using the Beckman Coulter Hemoccult Single Slides (Beckman Coulter, Inc., USA). The observation results were expressed in scores according to the criteria in Table 2.\nDisease activity index (DAI)=(Fecal consistency+fecal color)/2"}, "[4]": {"experiment": "Changes in body weight of ulcerative colitis-induced mice", "type": "in vivo, C57BL/6J mice", "details": "3% (w/v) DSS from day 3; oral 100 μl/10 g bw; measured daily from day 0", "method": "Since ulcerative colitis-induced animals lose weight, a symptom-alleviating effect was checked by measuring changes in body weight.\nFor the respective normal group, control group, positive control group, and BA experimental group prepared in Example 1, the body weight was measured using a precision balance at the start of the experiment (day 0), and changes in body weight were measured at daily intervals for comparison."}, "[5]": {"system": "ulcerative colitis-induced mice", "experiment": "Colon length in DSS-induced ulcerative colitis mice", "type": "in vivo, C57BL/6J mice", "details": "3% (w/v) DSS from day 3; oral 100 μl/10 g bw; colon extracted on day 11", "method": "as §1"}, "[6]": {"experiment": "Food intake by ulcerative colitis-induced mice", "details": "3% (w/v) DSS from day 3; oral 100 μl/10 g bw; measured daily, day 0 to day 11", "description": "as §2, §3, §4, §5"}},
  "note": "Like-named read-outs stand apart in the source and are kept apart here.",
  "data": [
    {"smiles": "O=C(O)c1cc(/N=N/c2ccc(S(=O)(=O)Nc3ccccn3)cc2)ccc1O", "note": "[sulfasalazine, Sulfasalazine]", "values": [
      {"measurement": "food intake compared with the normal group", "setting": "[1]", "value": "a decrease in food intake"},
      {"measurement": "histological changes in colon tissue: goblet cells and surface epithelium", "setting": "[2]", "value": "had lost goblet cells and surface epithelium"},
      {"measurement": "histological changes in colon tissue: immune cell penetration", "setting": "[2]", "value": "many immune cells had penetrated the colon tissues"},
      {"measurement": "histological changes in colon tissue: structure of the mucosa", "setting": "[2]", "value": "the structure of the mucosa was partially maintained"},
      {"measurement": "increase in MPO activity as compared with the normal group", "setting": "myeloperoxidase (MPO)", "value": "about 1.5 fold"},
      {"measurement": "Disease activity index (DAI) = (fecal consistency + fecal color)/2", "setting": "[3]", "value": "high DAI"},
      {"measurement": "decrease in body weight", "setting": "[4]", "value": "about 20%"},
      {"measurement": "colon length shorter than that of the normal group", "setting": "[5]", "value": "about 2.8 cm"}
    ]},
    {"smiles": "CC(C)=CCc1cc(C(=O)/C=C/c2ccc(O)c(O)c2)c(O)cc1O", "note": "[broussochalcone A]", "values": [
      {"measurement": "histological changes in colon tissue: structure of the mucosa", "setting": "[2]", "value": "the structure of the mucosa was maintained"},
      {"measurement": "MPO activity as compared with the normal group (in words)", "setting": "myeloperoxidase (MPO)", "value": "did not exhibit significantly different MPO activity as compared with the normal group"},
      {"measurement": "Disease activity index (DAI) = (fecal consistency + fecal color)/2", "setting": "[3]", "value": "lower DAI than the control group"},
      {"measurement": "decrease in body weight", "setting": "[4]", "value": "about 5%"},
      {"measurement": "colon length compared with the normal group (in words)", "setting": "[5]", "value": "colon length similar to that of the normal group"},
      {"measurement": "food intake compared with the normal group", "setting": "[6]", "value": "an increase in food intake as compared with the normal group"}
    ]}
  ]
}
